According to patent US10092526B2, “Compositions and methods for treating respiratory injury or disease” (University of Pittsburgh—Of the Commonwealth System of …, priority 2013, dated 2018):
Values after ≈ are worked out from the molar mass of the structure shown. Like-named read-outs stand apart in the source and are kept apart here.

Tests used:
[1] = U937 monocyte cytotoxicity, Trypan blue staining; type: cell-based; settings: human
Protocol: (§1) U937 monocytes (0.2 ml at 0.3 x 10^6/ml) were treated with each compound at different concentrations for 16 hours. The cells were then stained with Trypan blue to identify dead cells, and to calculate the LC50. Combined values were used to generate therapeutic indexes (TI)=LC50/IC50.

U937 monocytes = test: U937 monocyte cytotoxicity, Trypan blue staining; type: cell-based
Protocol: as §1

TNFα cytokine release = test: LPS-induced TNFα cytokine release in PBMC (ELISA); type: cell-based; settings: LPS 50 ng/ml, 16 hours, TNFα release by ELISA
Protocol: Peripheral blood mononuclear cells (PBMC) (0.2 ml at 0.3×10^6/ml) were treated with lipopolysaccharide (LPS) (50 ng/ml) for 16 hours concurrently with each compound tested at different concentrations. TNFα cytokine release was monitored by ELISA. These concentrations were used to calculate the IC50.

IL1β = test: IC50IL1β measurements (FIG. 1); type: cell-based
[2] = tested on: cigarette smoke induced chronic lung inflammation; test: Smoke induced chronic lung inflammation (Example 6); type: in vivo, mice; settings: cigarette smoke 5 weeks, single 100 ug dose i.p., 18 hours
Protocol: Mice were exposed to cigarette smoke for 5 weeks before a single 100 ug dose of Compound 014 was administered by i.p. injection. The mice were euthanized 18 hours later, and lungs were lavaged with saline, harvested, and then homogenized. Lavage protein, cell counts and cytokine secretion were measured. (n=3 mice/group, *P<0.05 versus control)

[3] = tested on: Dexamethasone-induced muscle atrophy; test: Dexamethasone induced muscle myopathy model (Example 8); type: in vivo, C57BL mice
Protocol: C57BL mice were given daily i.p. injection of 0.1 ml of vehicle or Dexamethasone (10 mg/kg/d) for 14 days. Some mice were also given BC-1261 (also referred to herein as compound 014) in drinking water with estimated dose of 0.5, 2 and 5 mg/kg/d. Mice were then sacrificed and (tibialis anterior)TA muscle were removed, photographed (A), weighted (C), processed for H&E staining (B) and protein immunoblotting (E).

IMQ induced psoriasis = IMQ induced psoriasis model (Example 7); type: in vivo, BALB/c mice
Text: An objective scoring system was developed based on the clinical Psoriasis Area and Severity Index (PASI), except that for the mouse model the affected skin area is not taken into account in the overall score. Erythema and scaling were scored independently on a scale from 0 to 4: 0, none; 1, slight; 2, moderate; 3, marked; 4, very marked. The level of erythema was scored using a scoring table with red taints. At day 7, mice were euthanized and spleens were removed for weight measuring.
Female BALB/c mice at 8 to 11 wk of age received a daily topical dose of 62.5 mg of commercially available IMQ cream (5%) (Aldara; 3M Pharmaceuticals) on the shaved back and the right ear for 5 or 6 consecutive days, translating in a daily dose of 3.125 mg of the active compound. Control mice were treated similarly with a control vehicle cream (Vaseline Lanette cream; Fagron). BC-1261 (also referred to herein as compound 014) were either given in drinking water or applied topically daily. To score the severity of inflammation of the back skin, an objective scoring system was developed based on the clinical Psoriasis Area and Severity Index (PASI), except that for the mouse model the affected skin area is not taken into account in the overall score. Erythema and scaling were scored independently on a scale from 0 to 4: 0, none; 1, slight; 2, moderate; 3, marked; 4, very marked. The level of erythema was scored using a scoring table with red taints. At day 7, mice were euthanized and spleens were removed for weight measuring. Skin and ear sample were also collected for H&E staining and epidermis thickness were measured and graphed. n=5-10 per group, *p<0.05.

[4] = tested on: Pseudomonas aeruginosa strain PA103; test: Pseudomonas induced pneumonia, Compound 014 (Example 5); type: in vivo, mice; settings: 30 μg or 150 μg IP
Protocol: Mice were administered either 30 μg or 150 μg of Compound 014 by IP injection, and these mice were then challenged with Pseudomonas aeruginosa strain PA103 (2.5×10^4 CFU/mouse, i.t.) for 18 hours. Mice were monitored on a FlexiVent to measure lung mechanics throughout the procedure. The mice were then sacrificed and lungs were lavaged with saline, harvested, and then homogenized. Lavage cells were processed with cytosin and stained with May-Grunwald and Geimsa, and H&E staining was performed on lung samples. Lavage protein, cell count, and cytokine secretion were measured. (n=4 mice/group, *P<0.05 versus PA103 versus Vehicle)

[5] = tested on: lung transplant rejection; test: Lung transplant acute rejection model (Example 9); type: in vivo, mouse; settings: 5 mg/kg/d i.p. 2 days then drinking water 5 mg/kg/d 5 days
Protocol: Left lung from BALB/C mouse was surgically removed and transplanted into C57/BL mouse. Mice were given vehicle or BC-1261 (5 mg/kg/d i.p. injection) for 2 days until fully recovered. After that, BC-1261 (also referred to herein as compound 014) was administered through drinking water (5 mg/kg/d) for additional 5 days. Mice were then sacrificed, and the transplanted lungs were removed for H&E staining.

[6] = U937 monocytes, 16 hours, Trypan blue dead cells, read-out: LC50
[7] = therapeutic index (TI)=LC50/IC50
[8] = Dexamethasone 10 mg/kg/d i.p. 14 days
[9] = PA103, vs vehicle control infected mice, FIG. 9

c1cc(N2CCCC2)ccc1CNCCCNCc1ccc(N2CCCC2)cc1 [Compound 007]
CC50 at 16 h [1, 6]: 3.2 µg/mL (≈ 8.15 µM) | TI (U937 monocytes; [7]): 2.9 | IC50 (TNFα cytokine release): 1.1 µg/mL (≈ 2.8 µM)

c1ccc(-c2ccc(CNCCNCc3ccc(-c4ccccn4)cc3)cc2)nc1 [Compound 005]
IC50 (IL1β): 0.9 µg/mL (≈ 2.28 µM) | TI (U937 monocytes; [7]): 96 | IC50 (TNFα cytokine release): 0.9 µg/mL (≈ 2.28 µM)

c1ccc(-c2ccc(CNCCNCc3ccc(-c4ccccc4)cc3)cc2)cc1 [Compound 015]
IC50 (IL1β): 2 µg/mL (≈ 5.09 µM) | CC50 at 16 h [1, 6]: 2 µg/mL (≈ 5.09 µM) | TI (U937 monocytes; [7]): 1 | IC50 (TNFα cytokine release): 2 µg/mL (≈ 5.09 µM)

c1cc(N2CCCCC2)ccc1CNCCNCc1ccc(N2CCCCC2)cc1 [Compound 004]
IC50 (IL1β): 0.8 µg/mL (≈ 1.97 µM) | CC50 at 16 h [1, 6]: 27 µg/mL (≈ 66.4 µM) | TI (U937 monocytes; [7]): 33 | IC50 (TNFα cytokine release): 0.8 µg/mL (≈ 1.97 µM)

c1cn(-c2ccc(CNCCNCc3ccc(-n4ccnc4)cc3)cc2)cn1 [Compound 003]
CC50 at 16 h [1, 6]: 130 µg/mL (≈ 349 µM) | TI (U937 monocytes; [7]): 142 | IC50 (TNFα cytokine release): 0.7 µg/mL (≈ 1.88 µM)

c1cnc(-c2ccc(CNCCNCc3ccc(-c4ncccn4)cc3)cc2)nc1 [Compound 014]
IC50 (IL1β): 0.4 µg/mL (≈ 1.01 µM) | CC50 at 16 h [1, 6]: 410 µg/mL (≈ 1030 µM) | TI (U937 monocytes; [7]): 1025 | lavage cell counts ([2]; FIG. 12): reduced | lavage protein concentration ([2]; FIG. 12): reduced | lavage pro-inflammatory cytokine levels ([2]; FIG. 12C): reduction | TRAF6 protein in TA muscle (immunoblotting) [3, 8]: degrading up-regulated TRAF6 protein | muscle wasting (cross sectional measurements, TA muscle H&E staining) [3, 8]: prevented | Dexamethasone-induced muscle atrophy ([3]; drinking water 0.5, 2 and 5 mg/kg/d, Dexamethasone 10 mg/kg/d i.p. 14 days): attenuates | dexamethasone-induced tibialis anterior muscle loss ([3]; even at 0.5 mg/kg/d in drinking water): significantly ameliorates | ear thickness (IMQ induced psoriasis; IMQ model): reduces | gross appearance (IMQ induced psoriasis; IMQ model): reduces | spleen weight (IMQ induced psoriasis; IMQ model, day 7): reduces | psoriasis index (IMQ induced psoriasis; IMQ model, score based on PASI): reduces | IMQ induced psoriasis (IMQ induced psoriasis; in drinking water or applied topically daily, BALB/C mice, FIGS. 13-17): effectively ameliorates | adverse effects of Pseudomonas on lung mechanics ([4]; PA103 2.5×10^4 CFU/mouse i.t., 18 hours): significantly ameliorated | lavage cell counts [4, 9]: reduced | lavage protein concentration [4, 9]: reduced | lavage pro-inflammatory cytokine levels ([4]; PA103, vs vehicle control infected mice, FIG. 9C): reduction | cell infiltrates (H&E staining) ([4]; PA103, vs vehicle control mice, FIG. 11): significantly reduced | neutrophils in May-Grunwald and Geimsa smears ([4]; PA103, vs vehicle control smears, FIG. 10): significantly fewer neutrophils | IC50 (TNFα cytokine release): 0.4 µg/mL (≈ 1.01 µM) | neutrophilia infiltrates induced by lung transplant rejection [5]: effectively ameliorates | transplanted lung H&E staining, infiltrates ([5]; vs vehicle group): completely protected lung

c1coc(-c2ccc(CNCCNCc3ccc(-c4ccco4)cc3)cc2)c1 [Compound 013]
CC50 at 16 h [1, 6]: 5.5 µg/mL (≈ 14.8 µM) | TI (U937 monocytes; [7]): 2.8 | IC50 (TNFα cytokine release): 1.9 µg/mL (≈ 5.1 µM)

c1ccc(CNCCNCc2ccccc2)cc1 [Benzathine, reference compound]
IC50 (IL1β): 25 µg/mL (≈ 104 µM) | CC50 at 16 h [1]: 400 µg/mL (≈ 1660 µM) | TI (U937 monocytes; human, 16 h): 16 | IC50 (TNFα cytokine release): 25 µg/mL (≈ 104 µM)

Cc1cc(CNCCCCNCc2ccc(N3CCCC3)c(C)c2)ccc1N1CCCC1 [Compound 019]
CC50 at 16 h [1, 6]: 1 µg/mL (≈ 2.3 µM) | TI (U937 monocytes; [7]): 2 | IC50 (TNFα cytokine release): 0.5 µg/mL (≈ 1.15 µM)

c1ccc(-c2ccc(CNCCCCNCc3ccc(-c4ccccn4)cc3)cc2)nc1 [Compound 010]
IC50 (IL1β): 1.5 µg/mL (≈ 3.55 µM) | CC50 at 16 h [1, 6]: 22 µg/mL (≈ 52.1 µM) | TI (U937 monocytes; [7]): 14.7 | IC50 (TNFα cytokine release): 1.5 µg/mL (≈ 3.55 µM)

Fc1cc(CNCCCCNCc2ccc(N3CCCC3)c(F)c2)ccc1N1CCCC1 [Compound 018]
CC50 at 16 h [1, 6]: 0.4 µg/mL (≈ 0.904 µM) | TI (U937 monocytes; [7]): 4 | IC50 (TNFα cytokine release): 0.1 µg/mL (≈ 0.226 µM)
